According to patent US20260022103A1, “PRAMIPEXOLE XINAFOATE AND SUSTAINED-RELEASE PHARMACEUTICAL FORMULATION THEREOF” (JEWIM PHARMACEUTICAL (SHANDONG) CO., LTD., priority 2022, published 2026):
Where a name gives a salt, the structure may show the parent alone. Read-outs that look alike come from different tables or passages of the source.

Columns and labels:
[1] = for Saturation concentration: 48 h
Procedure: The concentrations of the pramipexole salts in different media for saturation at 48 h were determined by a shake flask dissolution method at 37° C.

dopamine D2 receptor = dopamine D2 receptor (Homo sapiens, UniProt P14416); conditions: cited from earlier work
[2] = Pharmacokinetics of different pramipexole salt suspension injections in rats; format: in vivo; conditions: subcutaneous suspension injection
Procedure: 18 adult rats, including 12 males and 6 females (non-perilactation period), were selected and divided into three groups with 6 rats each group (a ratio of males to females of 2:1), and subcutaneously administered with 2 ml of the suspension injections of Examples 3-5 respectively. The main pharmacokinetic parameters of each of test animals were determined: the time to peak, the maximal blood drug level and AUC0-t.

[3] = Phosphate buffer at pH 6.8, 37° C.
[4] = Phosphate buffer at pH 7.4, 37° C.

Sequence of dopamine D2 receptor (P14416 whole entry, species assumed): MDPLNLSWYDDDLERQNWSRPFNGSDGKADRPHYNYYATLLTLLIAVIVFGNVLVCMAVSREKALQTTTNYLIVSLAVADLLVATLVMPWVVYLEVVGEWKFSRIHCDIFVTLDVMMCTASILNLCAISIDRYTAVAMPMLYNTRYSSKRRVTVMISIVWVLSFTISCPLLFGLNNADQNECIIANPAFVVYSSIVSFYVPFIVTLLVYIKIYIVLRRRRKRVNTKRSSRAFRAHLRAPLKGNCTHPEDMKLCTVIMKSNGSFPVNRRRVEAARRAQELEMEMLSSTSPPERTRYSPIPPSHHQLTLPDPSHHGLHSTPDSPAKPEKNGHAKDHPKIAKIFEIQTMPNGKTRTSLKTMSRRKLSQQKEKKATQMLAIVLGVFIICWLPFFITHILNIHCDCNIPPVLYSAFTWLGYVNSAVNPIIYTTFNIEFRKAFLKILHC

Molecule | Saturation concentration ([1]; 0.9% NaCl, 37° C.) | Saturation concentration [1, 3] | Saturation concentration [1, 4] | Saturation concentration ([1]; Water for injection, 37° C.) | also measured
pramipexole pamoate | 227.63 µg/mL | 275.34 µg/mL | 345.29 µg/mL | 189.25 µg/mL | 
CCCN[C@H]1CCc2nc(N)sc2C1 [pramipexole hydrochloride, Pramipexole hydrochloride] |  |  |  |  | Saturation concentration ([1]; 0.9% NaCl, 37° C., hydrochloride): 1207.41 µg/mL; Saturation concentration ([1]; Phosphate buffer at pH 6.8, 37° C., hydrochloride): 1249.45 µg/mL; Saturation concentration ([1]; Phosphate buffer at pH 7.4, 37° C., hydrochloride): 1363.53 µg/mL; Saturation concentration ([1]; Water for injection, 37° C., hydrochloride): 1187.36 µg/mL
CCCN[C@H]1CCc2nc(N)sc2C1 [S(−) isomer, (S)-(−)-2-amino-6-(propylamino)-4,5,6,7-tetrahydrobenzothiazole] |  |  |  |  | Affinity to dopamine D2 receptor relative to the R(+) isomer (dopamine D2 receptor; ratio versus R(+) isomer): 8-10 times; Affinity to dopamine D2 receptor relative to the racemate (dopamine D2 receptor; ratio versus racemate): 2 times
CCCN[C@H]1CCc2nc(N)sc2C1 [pramipexole xinafoate] | 1.05 µg/mL | 2.64 µg/mL | 4.66 µg/mL | 0.78 µg/mL | Solubility compared with the other salts ([1]; summary of Table 1): significantly decreased; Duration of sustained release [2]: up to 35 days
CCCN[C@H]1CCc2nc(N)sc2C1.O=C(O)c1ccccc1 [pramipexole benzoate] | 325.91 µg/mL | 392.11 µg/mL | 427.37 µg/mL | 292.72 µg/mL | 
